Tests used:
Type in all cases: physicochemical
[1] = Water sorption/desorption on automatic water sorption analyzer DVS-1; conditions: 25° C.
Procedure: Anhydro form of ezetimibe was tested on the automatic water sorption analyzer DVS-1 (Surface Measurement Systems Ltd., London, GB) under the following conditions: • controlled room temperature (25° C.) • nitrogen flow 200 ml/min • two full cycles from 0% RH to 95% RH and back in eleven stages • minimal time per one stage (when dm/dt<0.002%) was 10 min • maximal time per one stage was 360 min.

[2] = Drying in an air dryer, XRPD analysis
Excerpt: Hydrated form H of ezetimibe was dried in an air dryer (RH was 35%) at two different temperatures.

[3] = Drying in a vacuum dryer, XRPD analysis; conditions: ambient temperature, cca. 100 mbar
Procedure: Hydrated form H of ezetimibe was dried in a vacuum dryer at an ambient temperature and a pressure of cca. 100 mbar. After 1 h anhydrous form already predominated (A>H), after 2 h it became the sole form according to XRPD analysis.

[4] = Heating in Mettler HR73 Halogen Moisture Analyzer (LOD), then XRPD analysis
Excerpt: Hydrated form H of ezetimibe (from Example 30) was heated in a Mettler HR73 Halogen Moisture Analyzer. […] In all cases anhydro form of ezetimibe resulted according to XRPD analysis.
Pure S form of ezetimibe (tert.-butanol solvate; from Example 32) was heated in a Mettler HR73 Halogen Moisture Analyzer at different temperatures for the time indicated and analyzed by XRPD.

SMILES: O=C1[C@H](CC[C@H](O)c2ccc(F)cc2)[C@@H](c2ccc(O)cc2)N1c1ccc(F)cc1 [Anhydro form of ezetimibe, 1-(4-fluorophenyl)-3(R)-[3-(4-fluorophenyl)-3(S)-hydroxypropyl]-4(S)-(4-hydroxyphenyl)-2-azetidinone]
- mass in the desorption cycle ([1]; at 20% RH): dropped sharply
- mass in the desorption cycle ([1]; down to 30% RH): not significantly changed
- water sorption, mass change at equilibrium ([1]; first cycle, 60% RH): 4.2%
- water sorption, total ([1]; first cycle, 95% RH): 4.4%
- absorption of water ([1]; first cycle, up to 50% RH): no significant absorption of water
- water sorption ([1]; second cycle, 50% RH): increased sharply

SMILES: O=C1[C@H](CC[C@H](O)c2ccc(F)cc2)[C@@H](c2ccc(O)cc2)N1c1ccc(F)cc1 [Hydrated form H of ezetimibe, 1-(4-fluorophenyl)-3(R)-[3-(4-fluorophenyl)-3(S)-hydroxypropyl]-4(S)-(4-hydroxyphenyl)-2-azetidinone]
- form detected according to XRPD analysis ([2]; air dryer, RH 35%, 40° C., after 1 h): only anhydro form
- temperature at which converted to anhydrous form A ([2]; upon drying): about 40 °C
- form according to XRPD analysis ([3]; after 1 h): A>H
- form according to XRPD analysis ([3]; after 2 h): sole form
- time to constant value of LOD ([4]; 50° C.): 11.5 min
- time to constant value of LOD ([4]; 60° C.): 6.5 min
- time to constant value of LOD ([4]; 70° C.): 4.5 min
- resulting form according to XRPD analysis ([4]; after heating at 50, 60 or 70° C. to constant LOD): anhydro form
- Constant value of LOD ([4]; heated at 50° C., 60° C. or 70° C.): −4.5%

SMILES: O=C1[C@H](CC[C@H](O)c2ccc(F)cc2)[C@@H](c2ccc(O)cc2)N1c1ccc(F)cc1 [S form of ezetimibe, 1-(4-fluorophenyl)-3(R)-[3-(4-fluorophenyl)-3(S)-hydroxypropyl]-4(S)-(4-hydroxyphenyl)-2-azetidinone]
- stability upon drying [4]: stable upon drying
- LOD (%) ([4]; 50 ° C., 14 min): −0.83%
- LOD (%) ([4]; 60 ° C., 10.5 min): −1.10%
- LOD (%) ([4]; 70 ° C., 9 min): −2.34%
- LOD (%) ([4]; 130 ° C., 4.5 min): −12.0%
- loss of drying ([4]; temperature of about 70° C.): only minimal loss of drying

— patent US20130190487A1, “PROCESS FOR THE PREPARATION OF EZETIMIBE AND DERIVATIVES THEREOF” (KRKA, priority 2007, published 2013)
